# In US20040265357A1, “Combination of liponic acid and glutamine in food and pharmaceutical products” (priority 2001, published 2004):
# Like-named read-outs stand apart in the source and are kept apart here.
# How the values were obtained:
# [1] = tested on: experimental rat model; conditions: cited from earlier work; for effectiveness against buthionine sulfoximine-induced cataract: comparison of enantiomers and racemate
# [2] = tested on: experimentally induced cerebral ischemia; conditions: cited from earlier work
# [3] = tested on: diabetes patients; conditions: daily 600 mg for more than 3 months; cited from earlier work
# [4] = tested on: mice 6-8 weeks old; conditions: mice on vitamin E-deficient diet; 1.65 g/kg of body weight; cited from earlier work
# [5] = tested on: aged mice; conditions: cited from earlier work
# [6] = tested on: rats; conditions: oral administration; cited from earlier work
# [7] = tested on: Human Jurkat T cells; assay: Increase in intracellular glutathione levels, Jurkat T cells (GSH by HPLC); type: cell-based
# Experimental: (§1) Human Jurkat T cells and U937 cells, a human myelomonocyclic cell line, were used for the experiments. Jurkat and U937 cells were cultivated in RPMI 1640 medium (Bio Whittaker, Belgium)—supplemented with 10% heat-inactivated fetal calf serum (FCS; Linaris, Germany), 1% penicillin/streptomycin (Life Technologies, Scotland) and 2 mM L-glutamine (Sigma, Mont.)—under standard conditions (95% humidity, 5% CO2 and 37° C.). After harvesting, the cells were washed 2× with PBS, resuspended in standard medium (RPMI 1640 with 10% FCS, 1% streptomycin/penicillin, without L-glutamine) in a concentration of 2×10^5 cells/ml and transferred into […] culture bottles. The cells were treated with and without addition of 2 mM glutamine and in each case with or without 100 μM α-lipoic acid over a period of 4, 8, 24 or 48 h. After the respective treatment period had elapsed, the cells were harvested and washed 2× with PBS. 2×10^6 cells were resuspended in sulfosalicylic acid (6.5% in distilled water; Marck, Germany) and incubated on ice for 15 min. The supernatant after pelleting of the cells (5 000 g, 10 min) was aspirated off and stored at −20° C. until glutathione was determined by HPLC.
# [8] = tested on: U937 cells, a human myelomonocyclic cell line; assay: Increase in intracellular glutathione levels, U937 cells (GSH by HPLC); type: cell-based
# Experimental: as §1
# [9] = tested on: mice; conditions: oral administration; cited from earlier work
# [10] = 0.05 mM glutamine added to culture medium
# [11] = 2 mM glutamine added to culture medium
smiles,measurement,setting,value
"O=C(O)CCCC[C@H]1CCSS1 (single isomer, unassigned) [S enantiomer]",effectiveness against buthionine sulfoximine-induced cataract,[1],effective
"O=C(O)CCCCC1CCSS1 (stereo not drawn) [lipoic acid, 5-(1,2-dithiolan-3-yl)valeric acid]",infarct size,"[2]; iv, 25 mg/kg body weight",reduction in the infarct size
same,cataract induced by buthionine sulfoximine,"[1]; rat model, subcutaneous injection 25 mg/kg body weight twice",significant reduction
same,oxidative stress,[3],reduction in oxidative stress
same,"symptoms of vitamin E deficiency phenomena (muscular dystrophy, weight loss)",[4],prevents the symptoms
same,long-term memory,[5],improve the long-term memory
"O=C(O)CCCC[C@@H]1CCSS1 [(R)-α-lipoic acid, (R)-5-(1,2-dithiolan-3-yl) valeric acid]",mitochondrial function,[6],improvement in mitochondrial function
same,effectiveness against buthionine sulfoximine-induced cataract,[1],effective
O=C(O)CCCC[C@@H](S)CCS (racemic) [dihydrolipoic acid],infarct size,[2]; 50 and 100 mg/kg body weight,reduction in the infarct size
"NC(=O)CCC(N)C(=O)O (stereo not drawn) [glutamine, 2-aminopentanoic acid 5-amide]",concentration of reduced glutathione (GSH),[7]; [10],no significant change
same,concentration of reduced glutathione (GSH),[7]; [11],significant increases
same,concentration of reduced glutathione (GSH),[8]; [10],no significant change
same,concentration of reduced glutathione (GSH),[8]; [11],significant increases
same,number of lymphocytes in Peyer's patches,[9],increased number of lymphocytes
O=C(O)CCCCC1CCSS1 (racemic) [racemic mixture],effectiveness against buthionine sulfoximine-induced cataract,[1],effective
